Assay results reported in PubChem BioAssay (NCI).
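Five concentrations, 48 hours, 96-well plates. Abbreviation: GI50, concentration required for 50% inhibition of growth. Definition used: TGI = concentration required for complete inhibition of growth.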

Tests used:
Assay in all cases: NCI tumour cell line growth inhibition, 48 h
UO-31 renal = system: UO-31 renal
ACHN renal = system: ACHN renal
UACC-257 melanoma = system: UACC-257 melanoma
UACC-62 melanoma = system: UACC-62 melanoma
SF-295 CNS = system: SF-295 CNS
HT29 colon = system: HT29 colon
SN12C renal = system: SN12C renal
OVCAR-3 ovarian = system: OVCAR-3 ovarian
RPMI-8226 leukemia = system: RPMI-8226 leukemia
DU-145 prostate = system: DU-145 prostate

Row | Structure (SMILES) | TGI (UO-31 renal) | TGI (ACHN renal) | TGI (UACC-257 melanoma) | TGI (UACC-62 melanoma) | TGI (SF-295 CNS) | TGI (HT29 colon) | TGI (SN12C renal) | TGI (OVCAR-3 ovarian) | TGI (RPMI-8226 leukemia) | GI50 (UO-31 renal) | GI50 (ACHN renal) | GI50 (UACC-257 melanoma) | GI50 (UACC-62 melanoma) | GI50 (SF-295 CNS) | GI50 (HT29 colon) | GI50 (SN12C renal) | GI50 (OVCAR-3 ovarian) | GI50 (RPMI-8226 leukemia) | GI50 (DU-145 prostate) | TGI (DU-145 prostate)
1 | C1CCN2CC3CONC3C2C1 (centres undefined) | > 100 µM | > 100 µM | > 100 µM | > 100 µM | > 100 µM | > 100 µM | > 100 µM | > 100 µM | > 100 µM | – | – | – | – | – | – | – | – | – | – | –
2 | CC1(C)CC(O)CC(C)(C)N1.CC1(C)CC(O)CC(C)(C)N1.CC1(C)CC(O)CC(C)(C)N1.CC1(C)CC(O)CC(C)(C)N1.Cl.[Ti] | > 100 µM | > 100 µM | > 100 µM | > 100 µM | > 100 µM | > 100 µM | > 100 µM | > 100 µM | > 100 µM | > 100 µM | > 100 µM | > 100 µM | > 100 µM | > 100 µM | > 100 µM | > 100 µM | > 100 µM | > 100 µM | – | –
3 | COc1ccc2nc(-c3ccc(O)cc3)ccc2c1 | > 100 µM | > 100 µM | > 100 µM | > 100 µM | > 100 µM | > 100 µM | > 100 µM | > 100 µM | > 100 µM | – | – | – | – | – | – | – | – | – | – | –
4 | CN1CCOCCOCCOc2ccccc2NC(=O)c2nc(cnc2N)-c2ccc(cc2)S1(=O)=O | – | > 100 µM | – | – | > 100 µM | – | > 100 µM | – | – | – | 0.0504 µM | – | – | 4.52 µM | – | > 100 µM | – | – | – | –
5 | C1=C(c2ccccc2)C(OC2Oc3ccccc3C=C2c2ccccc2)Oc2ccccc21 (centres undefined) | > 100 µM | > 100 µM | > 100 µM | > 100 µM | > 100 µM | > 100 µM | > 100 µM | > 100 µM | > 100 µM | – | – | – | – | – | – | – | – | – | – | –
6 | COc1cc2c3c(n(CCCN4CCSCC4)c(=O)c2cc1OC)-c1cc2c(cc1C3=O)OCO2 | > 100 µM | > 100 µM | > 100 µM | > 100 µM | > 100 µM | > 100 µM | – | 97.1 µM | – | > 100 µM | 58.6 µM | > 100 µM | 37.5 µM | 19 µM | > 100 µM | – | 35 µM | – | > 100 µM | > 100 µM
7 | C/C(CC(=O)Nc1cccc(Cl)c1C)=N\N=C(N)N | > 100 µM | > 100 µM | > 100 µM | > 100 µM | > 100 µM | > 100 µM | > 100 µM | > 100 µM | > 100 µM | – | – | – | – | – | – | – | – | – | – | –
8 | C=C(C)[C@@H]1CC[C@]2(C(=O)n3ccnc3)CC[C@]3(C)[C@H](CC[C@@H]4[C@@]5(C)CCCNC(C)(C)[C@@H]5CC[C@]43C)[C@@H]12 | 2.72 µM | – | 4.09 µM | 3.06 µM | 3.24 µM | 2.17 µM | 3.24 µM | 3.14 µM | – | 1.38 µM | – | 2.02 µM | 1.6 µM | 1.69 µM | 0.785 µM | 1.7 µM | 1.67 µM | – | 1.78 µM | 3.61 µM
9 | O=c1c2cccc3cccc(c4n1CCCN=4)c32 | > 100 µM | > 100 µM | > 100 µM | > 100 µM | > 100 µM | > 100 µM | > 100 µM | > 100 µM | > 100 µM | – | – | – | – | – | – | – | – | – | – | –
10 | Nc1c(C(=O)Nc2ccccc2O)[n+]([O-])c2ccccc2[n+]1[O-] | > 100 µM | > 100 µM | 44.6 µM | – | > 100 µM | > 100 µM | > 100 µM | > 100 µM | > 100 µM | – | – | – | – | – | – | – | – | – | – | –
